# ChEMBL document CHEMBL1201862, “PubChem BioAssay data set” (2004)
# Calls of active or inactive are those of the source.
# Assays:
# [1] = inhibitors of firefly luciferase expression or activity, dose response, H4 neuroglioma cells, luminescence (AID 1990); type: functional, cell-based
# [2] = Luminescence Cell-Based Dose Response HTS to Identify Inhibitors of 5'UTR Stem-Loop Driven Prion Protein mRNA Translation in H4 Neuroglioblastoma Cells. [Related pubchem assays: 1827 (Project Summary), 1813 (Primary HTS)]; type: functional
# [3] = inhibitors of SNCA 5'UTR-driven reporter translation, confirmation, H4 neuroglioma cells, luminescence (AID 1988); type: functional, cell-based
# [4] = Luminescence Cell-Based Dose Response HTS to Identify Activators of Luciferase Translation or Activity in H4 […] Cells. [Related pubchem assays: 1829 (Project Summary), 1814 (Primary HTS)]; type: functional
# [5] = Luminescence Cell-Based Dose Confirmation HTS to Identify Activators of 5'UTR Stem-Loop Driven Alpha-Synuclein mRNA Translation in H4 Neuroglioblastoma Cells. [Related pubchem assays: 1829 (Project Summary), 1814 (Primary HTS)]; type: functional
# H4 = assay: Luminescence Cell-Based Dose Response HTS to Identify Activators of 5'UTR Stem-Loop Driven Prion Protein mRNA Translation in H4 Neuroglioblastoma Cells. [Related pubchem assays: 1829 (Project Summary), 1814 (Primary HTS)]; type: functional; details: Homo sapiens
# INS1 = assay: beta cell apoptosis inhibitors, cytokine rescue, dose response, luminescence, retest (AID 449756); type: functional, cell-based; details: Rattus norvegicus;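 note: cell death triggered by IL-1 beta plus TNF-alpha plus IFN-gamma mixture; protective hits raise ATP signal compared with cytokine alone wells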
# [6] = target: T1, Rac GTPase-activating protein 1 (Homo sapiens, UniProt Q9H0H5); assay: MgcRacGAP GTPase-activating activity inhibitors, confirmation, biochemical, ADP Hunter fluorescence, primary and confirmatory (AID 624330); type: functional
# T1 sequence (Q9H0H5 whole entry): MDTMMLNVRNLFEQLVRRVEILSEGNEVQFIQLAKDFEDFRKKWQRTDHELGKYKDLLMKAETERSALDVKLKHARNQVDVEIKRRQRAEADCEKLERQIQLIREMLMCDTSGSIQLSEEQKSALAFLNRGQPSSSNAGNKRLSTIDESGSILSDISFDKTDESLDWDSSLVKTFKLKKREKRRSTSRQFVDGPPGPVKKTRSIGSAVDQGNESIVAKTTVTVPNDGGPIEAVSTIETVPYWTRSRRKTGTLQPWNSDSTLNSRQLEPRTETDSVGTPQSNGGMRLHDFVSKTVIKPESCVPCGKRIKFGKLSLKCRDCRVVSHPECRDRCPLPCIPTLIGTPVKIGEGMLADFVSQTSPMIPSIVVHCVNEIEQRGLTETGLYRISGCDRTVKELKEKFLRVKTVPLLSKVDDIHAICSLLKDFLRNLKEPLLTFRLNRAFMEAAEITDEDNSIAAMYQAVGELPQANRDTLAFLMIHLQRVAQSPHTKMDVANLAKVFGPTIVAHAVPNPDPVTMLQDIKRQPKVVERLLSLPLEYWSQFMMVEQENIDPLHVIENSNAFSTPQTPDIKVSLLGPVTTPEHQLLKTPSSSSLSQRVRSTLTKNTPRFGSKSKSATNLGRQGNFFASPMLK
# [7] = test system: Streptococcus sp. 'group A'; assay: growth inhibition of control SK(-) GAS strain, dose response, counter-screen for streptokinase expression inhibitor project, luminescence, kanamycin, BacTiterGlo, confirmation (AID 1900); type: functional, organism-based
# Streptokinase A = target: T2, Streptokinase A (Streptococcus pyogenes serotype M1, UniProt P10520); assay: S. pyogenes streptokinase expression inhibitors, potency, dose response, plasminogen activation absorbance, OD405 (AID 1914); type: functional, Streptococcus pyogenes M1 GAS;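 note: secreted streptokinase activity via plasminogen activation per viability signal from cell pellet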
# T2 sequence (P10520 whole entry): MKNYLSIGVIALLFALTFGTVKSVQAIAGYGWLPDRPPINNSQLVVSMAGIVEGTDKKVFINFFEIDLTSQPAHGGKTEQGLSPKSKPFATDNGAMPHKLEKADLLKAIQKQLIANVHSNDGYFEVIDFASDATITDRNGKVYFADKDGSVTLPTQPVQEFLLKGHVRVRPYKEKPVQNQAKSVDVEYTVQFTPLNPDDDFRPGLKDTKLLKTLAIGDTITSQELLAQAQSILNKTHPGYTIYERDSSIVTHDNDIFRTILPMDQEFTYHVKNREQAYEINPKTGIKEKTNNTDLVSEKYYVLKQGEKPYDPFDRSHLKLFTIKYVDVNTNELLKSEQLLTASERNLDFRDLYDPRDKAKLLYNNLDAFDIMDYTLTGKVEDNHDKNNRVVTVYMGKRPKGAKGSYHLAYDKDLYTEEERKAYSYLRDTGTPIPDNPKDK
# Streptococcus = assay: Group A Streptococcus viability loss, dose response, counter-screen for streptokinase expression inhibitor project, luminescence, BacTiterGlo (AID 1915); type: functional, organism-based;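 note: potency for reduction of bacterial viability or growth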
# Cytochrome P450 2C9 = Cytochrome P450 2C9 (Homo sapiens, UniProt P11712)
# Sequence of Cytochrome P450 2C9 (P11712 whole entry): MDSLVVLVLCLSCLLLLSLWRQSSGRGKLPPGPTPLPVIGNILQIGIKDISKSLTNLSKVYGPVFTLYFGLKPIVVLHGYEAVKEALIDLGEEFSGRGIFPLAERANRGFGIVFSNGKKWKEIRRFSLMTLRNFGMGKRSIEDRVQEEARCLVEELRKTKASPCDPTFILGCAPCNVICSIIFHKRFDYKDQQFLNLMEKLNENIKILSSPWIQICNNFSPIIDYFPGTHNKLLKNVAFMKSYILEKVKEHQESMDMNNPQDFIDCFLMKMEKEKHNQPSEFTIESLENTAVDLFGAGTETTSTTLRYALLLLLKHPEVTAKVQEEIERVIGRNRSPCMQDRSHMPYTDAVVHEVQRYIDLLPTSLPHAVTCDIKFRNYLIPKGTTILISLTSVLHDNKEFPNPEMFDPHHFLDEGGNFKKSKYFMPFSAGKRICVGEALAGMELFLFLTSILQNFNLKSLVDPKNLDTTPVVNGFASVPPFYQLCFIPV
# Cytochrome P450 2C19 = Cytochrome P450 2C19 (Homo sapiens, UniProt P33261); assay: Cytochrome panel assay with activity outcomes. Panel member name: p450-cyp2c19 Compounds with AC50 equal or less than 10 uM are considered active; type: functional
# Sequence of Cytochrome P450 2C19 (P33261 whole entry): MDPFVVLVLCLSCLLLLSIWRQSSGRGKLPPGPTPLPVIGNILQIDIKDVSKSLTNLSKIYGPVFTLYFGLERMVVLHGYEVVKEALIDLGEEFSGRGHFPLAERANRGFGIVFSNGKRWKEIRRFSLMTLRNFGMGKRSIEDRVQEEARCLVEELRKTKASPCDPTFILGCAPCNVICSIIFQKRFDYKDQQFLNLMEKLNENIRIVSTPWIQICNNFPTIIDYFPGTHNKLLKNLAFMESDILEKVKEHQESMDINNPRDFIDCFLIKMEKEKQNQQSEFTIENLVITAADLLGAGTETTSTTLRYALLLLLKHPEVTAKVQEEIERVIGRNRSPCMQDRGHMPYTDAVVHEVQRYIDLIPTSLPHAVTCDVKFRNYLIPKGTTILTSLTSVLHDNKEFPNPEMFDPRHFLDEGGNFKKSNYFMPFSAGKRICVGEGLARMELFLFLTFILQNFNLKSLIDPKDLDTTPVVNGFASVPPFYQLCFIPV
# [8] = HEp-2 cell cytotoxicity, dose response, cytotoxicity control for RSV inhibitor project, HTS (AID 2410); type: functional; details: human respiratory syncytial virus
# Cytochrome P450 3A4 = Cytochrome P450 3A4 (Homo sapiens, UniProt P08684);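 note: CYP3A4 tested as one member of a cytochrome P450 panel screen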
# Sequence of Cytochrome P450 3A4 (P08684 whole entry): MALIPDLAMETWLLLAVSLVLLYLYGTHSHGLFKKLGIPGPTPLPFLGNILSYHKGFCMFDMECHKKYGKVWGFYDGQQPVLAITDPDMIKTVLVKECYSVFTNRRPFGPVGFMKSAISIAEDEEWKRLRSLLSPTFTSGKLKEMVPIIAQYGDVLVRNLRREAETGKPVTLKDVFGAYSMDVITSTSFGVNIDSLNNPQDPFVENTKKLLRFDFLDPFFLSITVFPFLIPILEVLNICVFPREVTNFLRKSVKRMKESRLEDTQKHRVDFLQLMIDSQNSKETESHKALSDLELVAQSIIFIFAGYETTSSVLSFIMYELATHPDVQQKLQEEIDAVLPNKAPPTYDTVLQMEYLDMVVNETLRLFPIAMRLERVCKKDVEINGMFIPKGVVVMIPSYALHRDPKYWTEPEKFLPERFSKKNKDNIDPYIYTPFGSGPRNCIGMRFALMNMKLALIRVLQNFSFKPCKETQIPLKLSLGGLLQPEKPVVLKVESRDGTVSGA
compound,measurement,setting,value
Cc1cc(/C=C2/SC(=S)N(c3cccc(C(F)(F)F)c3)C2=O)c(C)n1-c1cccnc1,EC50,[1],> 120 µM (not active)
same,EC50,[2],> 120 µM (not active)
same,EC50,[3],> 120 µM (not active)
CCc1ccc(C(=O)Nn2cnc3ccccc3c2=O)cc1,EC50,[4],26.8 µM (active)
same,EC50,[5],2.82 µM (active)
same,EC50,H4,0.887 µM (active)
Cc1ccc([N+](=O)[O-])c(OCCN2CCCCCC2)c1,AC50,INS1,4.9 µM (active)
Nc1ccc2c(c1)Nc1ccccc1CC2,IC50,[6],27.2 µM (active)
Fc1ccc(-c2csc3ncnc(N4CCc5ccccc5C4)c23)cc1,EC50,[1],23.6 µM (active)
same,EC50,[2],> 120 µM (not active)
same,EC50,[7],9.67 µM (active)
same,EC50,[3],> 120 µM (not active)
same,EC50,Streptokinase A,6.92 µM (active)
same,EC50,Streptococcus,> 50 µM (not active)
Cc1cc2nnc(SCC(=O)N3CCN(c4ccccc4)CC3)n2c(N)n1,AC50,Cytochrome P450 2C9,25.1 µM (inconclusive)
same,AC50,Cytochrome P450 2C19,inconclusive
O=C(/C=C/c1ccccc1)NC(=S)Nc1ccccc1O,EC50,[4],66.3 µM (active)
same,EC50,[5],0.387 µM (active)
same,EC50,H4,1.9 µM (active)
O=C(NCCc1ccccc1)c1ccccc1NC(=O)C1CCCCC1C(=O)O (stereo not given),EC50,[4],17.9 µM (active)
same,EC50,[5],19.1 µM (active)
same,EC50,H4,5.14 µM (active)
CC(=O)Nc1ccc(Nc2nc(-c3cc4ccccc4oc3=O)cs2)cc1,EC50,[4],0.676 µM (active)
same,EC50,[5],0.397 µM (active)
same,EC50,H4,1.7 µM (active)
COc1ccc(CN(C)CCc2ccccn2)c(OC)c1OC,IC50,[6],134 µM (active)
O=C1N=C(N2CCOCC2)S/C1=C\c1ccccc1OS(=O)(=O)c1ccccc1,EC50,[1],14.8 µM (active)
same,EC50,[2],> 120 µM (not active)
same,EC50,[3],> 120 µM (not active)
COc1cc(CNc2ccc3[nH]c(O)nc3c2)ccc1OCc1cccc(C)c1,IC50,[6],236 µM (active)
COc1ccc(CC(=O)Nc2cc3oc4ccccc4c3cc2OC)cc1,CC50,[8],> 50 µM (active)
COc1ccccc1N1CCN(C(=O)CSc2ncnc3c2cnn3-c2ccc(C)c(C)c2)CC1,EC50,[4],15.4 µM (active)
same,EC50,[5],39.4 µM (active)
same,EC50,H4,54.1 µM (active)
O=C(NCc1nnc(S)n1-c1ccccc1)c1ccc(S(=O)(=O)N2CCOCC2)cc1,AC50,Cytochrome P450 2C9,14.1 µM (inconclusive)
same,AC50,Cytochrome P450 2C19; read-out: AC50,25.1 µM (inconclusive)
same,AC50,Cytochrome P450 3A4,31.6 µM (inconclusive)
CCOC(=O)c1sc2nc(NC(=O)C3CC3)sc2c1C,EC50,[4],57.6 µM (active)
same,EC50,[5],10.8 µM (active)
same,EC50,H4,28.4 µM (inconclusive)
